Assays:
Reh cells [1] = assay: Apoptosis assay (Annexin V-PE / 7-AAD, flow cytometry) of Reh cells transduced with wild-type or mutant cN-II after drug treatment; assay type: cell-based; details: Reh cells transduced with lentiviruses encoding wild-type or mutant (Arg238Trp, Arg367Gln or Ser445Phe) cN-II; incubation 24-72 h
Experimental: Cell Culture and Drug Treatment. Reh cells obtained from the American Type Culture Collection (ATCC) were grown in RPMI1640 supplemented with 10% FBS, 10 mM HEPES and 1% penicillin-streptomycin under 5% CO2 at 37° C. 293T cells (ATCC) were grown in DMEM supplemented with 10% FBS and 1% penicillin-streptomycin under 5% CO2 at 37° C. 6-mercaptopurine, 6-thioguanine, cytarabine, doxorubicin, gemcitabine and prednisolone (Sigma) were serially diluted in RPMI before use at the indicated concentrations.
Transient Transfection and Lentivirus Gene Transfer. NT5C2 DNA for wild-type and mutant (Arg238Trp, Arg367Gln and Ser445Phe) was cloned into the lentiviral vector pLenti using SalI and XbaI restriction sites. All plasmids were sequence verified. cDNA constructs were transfected into 293T cells along with helper plasmids using the calcium phosphate method to produce replication-defective virus. Supernatant was harvested 48 h later and used to transduce Reh cells (whose NT5C2 sequence was verified as wild type) supplemented with […] polybrene (Sigma). Virus-containing medium was replaced 24 h after infection. Cells were monitored 72 h after infection for infection efficiency by the detection of GFP-positive cells using a FACScan (BD). Infected cells were plated (200,000 cells per well in […] of medium) in triplicate for drug treatment with 6-mercaptopurine, 6-thioguanine, cytarabine, doxorubicin, gemcitabine and prednisolone (Sigma). Cells were incubated for 24-72 h and then assayed for apoptosis by Annexin V-PE and 7-AAD staining (Annexin V-PE Apoptosis Detection kit, BD Pharmingen) followed by flow cytometry analysis using a FACScan. The percentages of cells positive and negative for Annexin V and/or 7-AAD staining were analyzed with FlowJo software (version 7.6.1, Tree Star). Data were plotted relative to results obtained with no chemotherapy treatment, and error bars represent the standard deviation from three independent determinations. Cells (1×10^6) were harvested for protein at the time of plating. Briefly, cells were pelleted at 200 g for 5 min and resuspended in […] of RIPA buffer with 1× protease inhibitors (GE Healthcare), incubated on ice for 15 min and centrifuged at 15,000 g for 10 min at 4° C. Protein was subjected to electrophoresis on 9% SDS-Tris acrylamide gels and transferred to PVDF membranes. Membranes were incubated with a 1:5,000 dilution of antibody to Flag (F3165, Sigma), incubated with a 1:10,000 dilution of HRP-conjugated secondary antibody to mouse (GE Healthcare) and developed using ECL (GE Healthcare).

Reh cells [2] = assay: HPLC determination of thioguanine nucleotides in Reh cells after 6-mercaptopurine treatment; assay type: cell-based; details: 6-mercaptopurine treatment for 24 h
Experimental: HPLC determination of nucleotides. Reh cells were transiently infected with NT5C2 constructs. After infection, cells were treated with 10 mM 6-mercaptopurine for 24 h in duplicate. After 24 h, 5×10^6 cells were washed twice with PBS, and cell pellets were frozen at −80° C. Intraceullar accumulation of thioguanine nucleotides (6-mercaptopurine active metabolites) was determined by a reversed-phase liquid chromatography assay as described previously (Dervieux et al., “HPLC Determination of Thiopurine Nucleosides and Nucleotides In Vivo in Lymphoblasts Following Mercaptopurine Therapy,” Clin. Chem. 48: 61-68 (2002), which is hereby incorporated by reference in its entirety).

cN-II = cN-II (Homo sapiens, UniProt P49902); details: cited from earlier work
cN-II, sequence (P49902 whole entry): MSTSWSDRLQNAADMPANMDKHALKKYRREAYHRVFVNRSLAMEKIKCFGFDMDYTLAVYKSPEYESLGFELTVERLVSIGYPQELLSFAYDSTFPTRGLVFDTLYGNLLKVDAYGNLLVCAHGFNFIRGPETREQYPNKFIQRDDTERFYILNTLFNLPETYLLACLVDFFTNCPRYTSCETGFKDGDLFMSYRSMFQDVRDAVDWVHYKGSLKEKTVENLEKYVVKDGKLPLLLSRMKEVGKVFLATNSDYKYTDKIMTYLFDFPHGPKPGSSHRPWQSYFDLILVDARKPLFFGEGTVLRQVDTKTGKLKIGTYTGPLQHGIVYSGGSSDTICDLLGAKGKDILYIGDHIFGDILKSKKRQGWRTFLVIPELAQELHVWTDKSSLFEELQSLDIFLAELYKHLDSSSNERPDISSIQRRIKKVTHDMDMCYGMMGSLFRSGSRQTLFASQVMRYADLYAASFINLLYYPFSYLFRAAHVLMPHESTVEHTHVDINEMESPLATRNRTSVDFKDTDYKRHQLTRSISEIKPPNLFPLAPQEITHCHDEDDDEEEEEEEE

| SMILES | resistance to apoptosis of cells expressing mutant forms of cN-II compared to cells expressing wild-type protein (Reh cells [1]) | level of thioguanine nucleotides in cells expressing mutant cN-II compared to control cells expressing wild-type protein or GFP (Reh cells [2]) | hydrolysis by the purified enzyme (cN-II) |
| --- | --- | --- | --- |
| Sc1ncnc2nc[nH]c12 [6-mercaptopurine] | significantly more resistant to apoptosis | reduction in the level of thioguanine nucleotides |  |
| Nc1nc2nc[nH]c2c(=S)[nH]1 [6-thioguanine] | significantly more resistant to apoptosis |  |  |
| Nc1ccn([C@@H]2O[C@H](COP(=O)(O)O)[C@@H](O)[C@@H]2O)c(=O)n1 [araC monophosphate] |  |  | does not hydrolyze |
| Nc1ccn([C@@H]2O[C@H](CO)[C@@H](O)[C@@H]2O)c(=O)n1 [cytarabine] | no resistance was seen |  |  |
| COc1cccc2c1C(=O)c1c(O)c3c(c(O)c1C2=O)C[C@@](O)(C(=O)CO)C[C@@H]3O[C@H]1C[C@H](N)[C@H](O)[C@H](C)O1 [doxorubicin] | no resistance was seen |  |  |
| Nc1ccn([C@@H]2O[C@H](CO)[C@@H](O)C2(F)F)c(=O)n1 [gemcitabine] | no resistance was seen |  |  |
| C[C@]12C=CC(=O)C=C1CC[C@@H]1[C@@H]2[C@@H](O)C[C@@]2(C)[C@H]1CC[C@]2(O)C(=O)CO [prednisolone] | no resistance was seen |  |  |
